Data reported in patent US8324202B2, “5-phenyl-1H-benzo [E] [1,4] diazepine compounds substituted with an hydroxamic acid group as histone deacetylase inhibitors” (Universita Degli Studi di Firenze, priority 2007, dated 2012).

How the values were obtained:
Type in all cases: cell-based, human
NB4 cells [1] = assay: Cytostatic and apoptotic activity, Annexin-V-FLUOS/propidium iodide flow cytometry, 48 hours; conditions: for IC50: Homo sapiens, NB-4, 48 hours, graphic extrapolation of Annexin-V results, viable cells over control, read-out: IC50 (drug concentration reducing cell density or viability by 50%); for apoptotic activity, in words: leukemic cells, summary in description
Protocol: (§1) The new described compounds were tested for their ability to inhibit the histone deacetylase activity by western blot for the acetylated isoforms of histone H3 and H4 and also to induce growth arrest in cancer cells by activating apoptosis and/or cell differentiation. Initially, biological activities of newly synthesized HDACi were assessed by using the human acute promyelocytic leukemia cell line NB4, as the experimental model. Cells were maintained in RPMI (Bio-Whittaker Europe, Verviers, Belgio) supplemented with 10% of fetal calf serum (FCS, Boehringer Mannheim, Germania) and 2 mM glutamine (Merck, Darmstadt, Germania) at 37° C. in a humidified atmosphere of 5% CO2. Cells were counted in a Burker chamber and cells viability was assessed by the trypan blu exclusion test.
Cells, were initially harvested at 4×10^5/mL (3 mL/well) cell density 24 well plate and incubated for 48 hours with increasing drug concentration. All compounds were solubilized in DMSO so that the final concentration of vehicle in culture was lower than 0.1%. At the end of treatment cell viability and apoptosis were evaluated by cytofluorimetric analysis using Anexin-V-Fluos staining (Annexin-V-FLUOS Staining Kit, Roche Molecular Biochemicals, Mannheim, Germany).
Necrotic cells, which are also Annexin-V positive, were identified by using Propidium iodide fluorochrome, that is capable of penetrating cell membranes of dying or dead cells and binding DNA.
Briefly, aliquots of cell suspensions (approximately 10^5 cells) washed in buffer PBS, were resuspended in 5 μl of binding buffer containing annexin V-fluorescein isothiocyanate (FITC) and propidium iodide; incubation was carried out for 15 minutes at room temperature, and cells were then analyzed by flow cytometry (FACScan Becton-Dickinson, San Jose, Calif.).
The IC50 values (i.e. the drug concentration necessary to reduce cell density or viability by 50% as compared to untreated control cultures) obtained by graphic extrapolation of the Anexin-V results and expressed as percentage of viable cells over control were reported In Table 2.
Data represent the percentage of viable cells as the function of drug concentration.

acetylated H4 histone = assay: Histone deacetylase inhibition: western blot for acetylated histone H4 in cells incubated 6 hours with drug; conditions: for Acetyl-H4 densitometric value: 6 hours, untreated = 0; for H4 histone acetylating activity, in words: summary in description
Protocol: as §1
(§2) Cells, obtained as described above, were harvested in sterile plates (Falcon, Becton Dickinson, Franklin Lakes, N.J.) at density of 6×10^5/mL, and incubated for 6 hours with increasing drug concentration of single compounds. Then, the cells were lysated with RIPA buffer (50 mM Tris-HCl pH 7.4, 150 mM NaCl, 1% Nonidet P-40, 1 mM EDTA plus protease inhibitor cocktail (Protease Inhibitor Cocktail Set III, n° cat. 539134, Calbiochem, Merck, Darmstadt, Germany) and sonicated (Labsonic 1510) twice for 15s pulses at 1-2 Watts in ice. Protein concentration of cell extracts was determined according to the bicinchoninic acid colorimetric method (BCA, Pierce, Rockford, USA) by using serum bovine albumin as the standard (BSA, Sigma, Steinheim, Germania). Equal amounts of protein (20-40 μg/20-30 μL/well) were separated on NuPAGE Bis-Tris 12% gel (Novex, Invitrogen, Carlsbad, Calif.) 10% and transferred to nitrocellulose membranes (Pro-Bind, pore diameter=0.45 μm; Amersham Pharmacia). Then membranes, incubated in phosphate buffer saline (PBS) with 6% defatted dry milk as blocking solution to saturate unspecific binding sites, were probed overnight at 4° C. with primary antibodies (1;1000 dilution in PBS) raised against acetylated H4 a H3 histone isoforms (Upstate Technologies, Lake Placid, N.Y., USA). […] The experiment was performed with the compound (II) S form, where R1 and R2 can be independently a methyl group or hydrogen.

NB4 cells [2] = assay: Granulocytic differentiation, NBT reduction assay, alone or with ATRA; conditions: for % of NBT+ cells: three days
Protocol: The analysis of functional myeloid differentiation induced by compounds of the invention was accomplished by Nitro-Blu tetrazolium (NBT) reduction assay as described below. Cell suspension (approximately 10^5/mL) were incubated in the presence of 0.25 mg/mL NBT and 500 ng of PMA (Phorbol-12-Myristate 13-acetate) (Sigma) at 37° C. for 30 minutes. Granulocyte or monocyte differentiated cell were capable of reducing NBT to dark formazan precipitate (blu positive cells). NBT positive cells were counted on Burker chamber and expressed as percentage of total cell population.
(§3) • Compounds (II) in racemic form and enantiomers S or R. • Compounds (III) in racemic form and enantiomers S or R. • Compounds (II) with R1 and R2=hydrogen were tested for their capability to synergize with ATRA and for their ability to induce granulocyte differentiation in the human promyelocytic cell line NB4. ATRA at the final concentration of 1 μM is usually employed to induce granulocyte differentiation in NB4 cells.
(§4) NB4 cells were incubated for three days in presence of the compounds listed above, alone or in combination with ATRA. Granulocyte differentiation of leukemic cells was determined by (a) Nitro-Blu tetrazolium (NBT) reduction to dark formazan precipitate (blu positive cells) counting NBT positive cells on Burker chamber and (b) cytofluorimetric analysis of CD11b membrane expression (granulocyte marker, see example 32).

acetylated H3 histone = assay: Histone deacetylase inhibition: western blot for acetylated histone H3 in cells incubated 6 hours with drug; conditions: for Acetyl-H3 densitometric value: 6 hours, untreated = 1
Protocol: as §1, §2

NB4 cells [3] = assay: Granulocytic differentiation, cytofluorimetric analysis of CD11b membrane expression, alone or with ATRA; conditions: for % of CD11b+ cells: three days
Protocol: Identification of markers of myeloid maturation was determined by flow cytometry by labelling cells with PE-conjugated antibody and FITC-conjugated antibody to CD11b (granulocyte marker) and CD14 (monocyte marker) respectively (Becton-Dickinson). Cell suspension aliquots (1×10^5 cells) were washed with cell wash buffer (Becton-Dickinson) and incubated with antibodies for 30 minutes in ice. After the incubation cells, resuspended in 0.3 mL of buffer containing Actinomycin D (Becton-Dickinson) to evaluate cell viability, were submitted to the cytofluorimetric analysis (FACScan, Becton-Dickinson). Cells incubated with appropriately labeled isotype controls were used to gate nonspecific fluorescence signal.
as §3, §4

NB4 cells [4] = assay: Morphologic evaluation of apoptosis, May-Grünwald-Giemsa stained cytosmears; conditions: FIG. 1 panel C, magnification ×650
Protocol: Cells were fixed with acid acetic/methanol (⅓, v/v), then 20 μL of fixed cell suspension were placed on glass slide and let dry for 24 h. The cytosmears were stained with May-Grünwald-Giemsa and apoptotic cells were identified according to the typical morphologic parameters such as nuclear fragmentation, reduction of cell volume and apoptotic bodies. Image analyses were obtained by using a Nikon Eclipse 50i microscope equipped with a Nikon Digital Sight DS -5M (Nikon Corporation, Tokyo, Japan).

Row | Compound | IC50 (NB4 cells [1]) | apoptotic activity, in words (NB4 cells [1]) | Acetyl-H4 densitometric value (acetylated H4 histone; 1 μM) | % of NBT+ cells (NB4 cells [2]; 3 μM compound + 20 nM ATRA) | % of NBT+ cells (NB4 cells [2]; 3 μM compound alone) | Acetyl-H3 densitometric value (acetylated H3 histone; 1 μM) | % of CD11b+ cells (NB4 cells [3]; 3 μM compound + 20 nM ATRA) | % of CD11b+ cells (NB4 cells [3]; 3 μM compound alone) | Acetyl-H4 densitometric value (acetylated H4 histone; 0.5 μM) | Acetyl-H4 densitometric value (acetylated H4 histone; 2.5 μM) | H4 histone acetylating activity, in words (acetylated H4 histone) | % of NBT+ cells (NB4 cells [2]; 1.5 μM compound + 20 nM ATRA) | % of NBT+ cells (NB4 cells [2]; 1.5 μM compound alone) | Acetyl-H3 densitometric value (acetylated H3 histone; 0.5 μM) | Acetyl-H3 densitometric value (acetylated H3 histone; 2.5 μM) | % of CD11b+ cells (NB4 cells [3]; 1.5 μM compound + 20 nM ATRA) | % of CD11b+ cells (NB4 cells [3]; 1.5 μM compound alone) | also measured
1 | CC1N=C(c2ccccc2)c2cc(C#CCCCC(=O)NO)ccc2N(C)C1=O (racemic) [Compound (II) racemic with R1 or R2 = Me, N-hydroxy-6-(1,3-dimethyl-2-oxo-5-phenyl-2,3-dihydro-1H-benzo[e][1,4]diazepin-7-yl)-5-hexynamide] | 3.4 µM | good ability to induce apoptosis | 1.67 arbitrary units | 72% | ≦1% | 3.73 arbitrary units | 81.7% | 31.2% |  |  |  |  |  |  |  |  |  | Acetyl-H4 densitometric value (acetylated H4 histone; 2 μM): 5.92 arbitrary units; Acetyl-H4 densitometric value (acetylated H4 histone; 5 μM): 16.29 arbitrary units; increase of NBT positive cells, combination versus each agent alone (NB4 cells [2]; 3 μM compound + 20 nM ATRA): up to 50 fold; Acetyl-H3 densitometric value (acetylated H3 histone; 2 μM): 4.61 arbitrary units; Acetyl-H3 densitometric value (acetylated H3 histone; 5 μM): 5.19 arbitrary units
2 | C[C@@H]1N=C(c2ccccc2)c2cc(C#CCCCC(=O)NO)ccc2N(C)C1=O [Compound (II) S form with R1 or R2 = Me, (S)-6-(1,3-dimethyl-2-oxo-5-phenyl-2,3-dihydro-1H-benzo[e][1,4]diazepin-7-yl)-N-hydroxyhex-5-ynamide] | 1.7 µM |  | 1.33 arbitrary units |  |  | 3.85 arbitrary units |  |  | 1 arbitrary units | 12.96 arbitrary units | facilitating, in its enantiomerically pure (S) form, H4 histone acetylation | 41% | ≦1% | 2.88 arbitrary units | 5.23 arbitrary units | 62.3% | 36.3% | H3 histone acetylating activity, in words (acetylated H3 histone; summary in description): good activity to induce H3 histone acetylation in a dose-dependent way; morphology of treated cells (apoptosis) (NB4 cells [4]): massive nuclear fragmentation suggestive of a typical apoptotic process
3 | CN1C(=O)CN=C(c2ccccc2)c2cc(C#CCCCC(=O)NO)ccc21 [Compound (II) R1 and R2 = hydrogen, 6-(1-methyl-2-oxo-5-phenyl-2,3-dihydro-1H-benzo[e][1,4]diazepin-7-yl)-N-hydroxyhex-5-ynamide] | 4.9 µM | excellent apoptotic activity | 1.8 arbitrary units | 80% | 3% | 2.41 arbitrary units | 94.7% | 69.3% | 1.3 arbitrary units | 4 arbitrary units | good H4 histone acetylating activity | 45% | 2% | 2.26 arbitrary units | 2.836 arbitrary units | 74.3% | 44% | effect on CD11b positive cells, in words (NB4 cells [3]; alone or in combination with 20 nM ATRA): significant and dose-dependent increase in the amount of CD11b positive cells
